The nature of assay [1]: accelerated coffee staining test: hydroxyapatite disks immersed in concentrated coffee with or without additive. To be noted: 7 minutes immersion in coffee (11 grams grounds to 0.5 cups water); uniform scale, 0 = un-stained disk, 5 = coffee without additive. As for the experimental part: Initially, an accelerated staining test was performed using a very strong coffee concentrate with short periods of immersion. This protocol emulates the actual oral staining process; i.e., live teeth aren't generally submerged in coffee for long periods of time since coffee is only held in the mouth for short periods of time, and the residues are rapidly diluted by saliva. In addition, coffee chemistry and pH changes rapidly due to temperature-excited oxidation—which results in significant acid formation in the first 20 minutes after brewing. As a result, coffee immersion in-vitro for times exceeding 20 minutes exposes test-items to a chemical environment which is not representative of that found in a mouth during a typical human consumption of coffee.
As one representative example of multiple tests using CHITOSAN NICOTINATE as an essential substance to prevent staining of hydroxyapatite (as found in tooth enamel), 0.02 grams of CHITOSAN NICOTINATE was placed in one of two containers of coffee brewed with 11.0 grams of coffee grounds to 0.5 cups water. Then disks made of hydroxyapatite were immersed in each container for 7 minutes time; and subsequently compared to establish the degree of staining. For meaningful comparisons of staining, the non-CHITOSAN NICOTINATE coffee was used as the dark stain standard, with an arbitrary value of 5. […]

Assay [2] can be described thus: stain reversal: coffee-stained hydroxyapatite disk immersed in brewed coffee containing additive. To be noted: previously coffee-stained disk immersed 15 minutes in brewed coffee with additive; original stain 100%, un-stained disk 0%. How it is done:
In addition, when a previously-coffee-stained hydroxyapatite disk was half-immersed within the brewed coffee for 15 minutes, the coffee-immersed area was lightened by 10%, where the original stain is said to be 100% and an un-stained disk is said to be 0%.
As one example of multiple tests using protein-splitting enzymes as an essential ingredient to reverse staining of hydroxyapatite, 20 mg of Papain was placed in one container of coffee, which was then brewed with 11 grams of coffee grounds to 0.5 cups water. For this series of tests, only coffee-stained hydroxyapatite disks were then immersed in the freshly brewed coffee for 15 minutes time.

In the case of `CS(C)(=O)=O` [METHYLSULFONYLMETHANE (DIMETHYLSULFONE), METHYLSULFONYLMETHANE], the “degree of staining of hydroxyapatite disks” value in assay [1] is recorded as 2.

B1: Papain: protein-splitting enzyme, plant protease (protein, UniProt P00784 134-345, looked up)
Papain: IPEYVDWRQKGAVTPVKNQGSCGSCWAFSAVVTIEGIIKIRTGNLNEYSEQELLDCDRRSYGCNGGYPWSALQLVAQYGIHYRNTYPYEGVQRYCRSREKGPYAAKTDGVRQVQPYNEGALLYSIANQPVSVVLEAAGKDFQLYRGGIFVGPCGNKVDHAVAAVGYGPNYILIKNSWGTGWGENGYIRIKRGTGNSYGVCGLYTSSFYPVKN
Turning to B1, in assay [2], the “coffee-immersed stained area lightened by” value was 20%.

For the origin of these results see patent US8974848B1, “Ingestible product and method for enhancing the appearance and quality of teeth in-vivo” (priority 2008, dated 2015).
